Laboratory results published in patent publication US6723741B2, “Benzimidazoles and benzothiazoles and uses thereof” (Synaptic Pharmaceutical Corporation, priority 1996, dated 2004).
Read-outs that look alike come from different tables or passages of the source.

Experiments:
[1] = biological target: T1, human α1B adrenergic receptor (Homo sapiens, UniProt P35368); assay: Radioligand binding assay, [3H]prazosin competition
T1 construct: The entire coding region of α1B (1563 bp); expressed in transfected cells
T1 sequence (P35368 1-520): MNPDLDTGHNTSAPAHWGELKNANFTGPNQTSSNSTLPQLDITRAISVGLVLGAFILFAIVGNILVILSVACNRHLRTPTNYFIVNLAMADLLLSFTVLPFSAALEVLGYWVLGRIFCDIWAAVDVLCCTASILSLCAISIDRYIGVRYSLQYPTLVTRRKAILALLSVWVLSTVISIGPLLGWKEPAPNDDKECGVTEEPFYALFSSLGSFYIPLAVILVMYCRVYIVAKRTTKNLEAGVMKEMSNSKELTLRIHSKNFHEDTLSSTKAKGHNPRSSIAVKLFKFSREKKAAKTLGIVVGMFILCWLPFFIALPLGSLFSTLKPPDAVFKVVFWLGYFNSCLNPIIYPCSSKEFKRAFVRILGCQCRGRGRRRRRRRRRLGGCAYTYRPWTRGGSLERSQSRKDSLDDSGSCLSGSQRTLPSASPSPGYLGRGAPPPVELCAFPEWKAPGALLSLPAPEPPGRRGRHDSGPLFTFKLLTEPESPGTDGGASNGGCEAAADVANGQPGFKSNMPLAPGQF

[2] = biological target: T2, human α1C adrenergic receptor (Homo sapiens, UniProt P35348); assay: as above; conditions: cloned human α1C (old nomenclature; = α1A), LM(tk-) cell membranes, read-out: pKi Alpha-1 C (converted)
T2 construct: expressed in transfected cells
T2 sequence (P35348 1-466): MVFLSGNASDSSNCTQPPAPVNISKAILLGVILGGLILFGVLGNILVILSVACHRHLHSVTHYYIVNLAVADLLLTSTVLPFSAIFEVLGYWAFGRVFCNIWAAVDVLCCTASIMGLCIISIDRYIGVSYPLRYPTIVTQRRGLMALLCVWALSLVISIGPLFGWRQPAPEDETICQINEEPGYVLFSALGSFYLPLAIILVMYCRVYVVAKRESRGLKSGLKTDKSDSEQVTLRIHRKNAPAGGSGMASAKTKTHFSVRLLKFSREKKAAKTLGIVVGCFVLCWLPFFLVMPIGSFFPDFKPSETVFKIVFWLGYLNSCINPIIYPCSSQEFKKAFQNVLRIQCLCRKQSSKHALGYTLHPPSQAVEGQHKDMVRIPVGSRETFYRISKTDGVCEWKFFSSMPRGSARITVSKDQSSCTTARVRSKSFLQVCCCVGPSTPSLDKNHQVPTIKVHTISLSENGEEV
Experimental: Equilibrium competition binding assays were performed with membrane preparations from cultured LM(tk^−) cells stably transfected with the cloned human alpha adrenoreceptor subtypes except for α2b, which was expressed in Y-1 cells, using [^3H] prazosin for α1 receptors and [^3H] rauwolscine for α2 receptors. Further details of pharmacological evaluations of claimed compounds are described in Example 21.
The cloned human alpha-1 adrenergic receptor subtypes referred to throughout this application as α1A, α1B, and α1C have recently been assigned new subtype designations by the IUPHAR Nomenclature Committee as outlined in the 1995 Receptor and Ion Channel Nomenclature Supplement (Watson and Girdlestone, 1995). In the new nomenclature system the cloned human α1A receptor referred to herein was given the appellation “α1D,” while the cloned human α1C receptor referred to herein was given the appellation “α1A”. However, throughout this application and the supporting tables and figures the old nomenclature will be used to describe the cloned human alpha-1 adrenergic receptor subtypes. The old nomenclature is used throughout this application because stable cell lines expressing the cloned human alpha-1 adrenergic receptors were produced and deposited with the ATCC according to the Budapest Treaty for the Deposit of Microorganisms, under designations assigned before the nomenclature change.
The entire coding region of α1C (1401 bp), including 400 basepairs of 5′ untranslated sequence (5′ UT) and 200 p of 3′ untranslated sequences (3′ UT), was cloned into the KpnI site of the polylinker-modified pCEXV-3-derived eukaryotic expression vector, EXJ.RH. The construct involved ligation three partial overlapping fragments: a 5′ 0.6 kb HincII genomic clone, a central 1.8 EcoRI hippocampal cDNA clone, and a 3′ 0.6 Kb PstI genomic clone. The hippocampal cDNA fragment overlaps with the 5′ and 3′ genomic clones so that the HincII nad PstI sites at the 5′ and 3′ ends of the cDNA clone, respectively, were utilized for ligation. This full-length clone was cloned into the KpnI site of the expression vector, using the 5′ and 3′ KpnI sites of the fragment, derived from vector (i.e., pBluescript) and 3′-untranslated sequences, respectively. Stable cell lines were produced and selected as described above.
Transfected cells from culture flasks were scraped into 5 mL of 5 mM Tris-HCl, 5 mM EDTA, pH 7.5, and lysed by sonication. The cell lysates were centrifuged at 1000 rpm for 5 min at 4° C., and the supernatant was centrifuged at 30,000×g for 20 min at 4° C. The pellet was suspended in 50 mM Tris-HCl, 1 mM MgCl2, and 0.1% Ascorbic acid at pH 7.5. Binding of α2 antagonist [^3H] rauwolscine ([…]) to membrane preparations of LM(tk−) cells was done in a final volume of 0.25 mL and incubated at 37° C. for 20 min. Nonspecific binding was determined in the presence of 10 μM phentolamine. The reaction was stopped by filtration through GF/B filters using a cell harvester.

[3] = biological target: T3, human α2C adrenergic receptor (Homo sapiens, UniProt P18825); assay: Agonist activity: inhibition of forskolin-stimulated cAMP synthesis; type: cell-based; conditions: for I.A (Intrinsic Activity) Alpha-2 C: maximum activity relative to maximum activity induced by norepinephrine, human α2C; for EC50: inhibition of forskolin-stimulated cAMP, stably transfected cells expressing human α2C, read-out: pEC50 Alpha-2 C (converted)
T3 construct: The entire coding region of α2C (1383 bp), including 2 bp of 5′ UT and 400 bp of 3′ UT; expressed in transfected cells
T3 sequence (P18825 1-462): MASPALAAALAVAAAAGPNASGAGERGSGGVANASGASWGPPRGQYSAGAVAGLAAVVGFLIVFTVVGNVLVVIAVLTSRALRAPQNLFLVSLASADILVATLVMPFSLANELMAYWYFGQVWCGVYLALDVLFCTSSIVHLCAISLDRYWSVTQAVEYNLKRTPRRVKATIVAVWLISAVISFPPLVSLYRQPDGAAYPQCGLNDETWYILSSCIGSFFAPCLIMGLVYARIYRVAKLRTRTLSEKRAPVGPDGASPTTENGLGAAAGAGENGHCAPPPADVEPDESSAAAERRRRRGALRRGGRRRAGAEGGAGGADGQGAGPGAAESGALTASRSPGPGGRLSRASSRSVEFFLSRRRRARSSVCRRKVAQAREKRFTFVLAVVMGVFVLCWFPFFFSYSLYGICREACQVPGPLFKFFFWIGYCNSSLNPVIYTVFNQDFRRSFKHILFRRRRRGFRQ

[4] = cloned human α1B, LM(tk-) cell membranes, [3H]prazosin, read-out: pKi Alpha-1 B (converted)

Compound	Ki [1]	Ki [2]	I.A (Intrinsic Activity) Alpha-2 C [3]	Ki [1, 4]	EC50 [3]
c1nc2ccc(NC3=NCCS3)cc2s1 [Example 15, 6-(2-Thiazolin-2-ylamino)benzothiazole]	7240 nM	5750 nM	0.88	–	–
Brc1cc(NC2=NCCN2)cc2cc[nH]c12 [Example 2, 7-Bromo-5-(2-imidazolin-2-ylamino)indole]	–	19.1 nM	1.00	26.9 nM	0.407 nM
CC(=O)c1cc(NC2=NCCN2)cc2cc[nH]c12 [Example 6, 7-Acetyl-5-(2-imidazolin-2-ylamino)indole]	–	186 nM	0.90	56.2 nM	40.7 nM
c1nc2cc(NC3=NCCN3)ccc2s1 [Example 13, 5-(2-Imidazolin-2-ylamino)benzothiazole]	–	708 nM	1.00	708 nM	0.603 nM
c1nc2ccc(NC3=NCCN3)cc2s1 [Example 14, 6-(2-Imidazolin-2-ylamino)benzothiazole]	3630 nM	2340 nM	1.00	–	–
N#Cc1cc(NC2=NCCN2)cc2cc[nH]c12 [Example 5, 7-Cyano-5-(2-imidazolin-2-ylamino)indole]	–	1450 nM	1.00	12600 nM	0.589 nM
